Results: PubChem BioAssay AID463204 (Broad Institute, 2010)
Active and inactive are the calls of the source.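 The calls were made as follows: active = AC50 no more than ten times the top concentration tested, that is within one log above it; inconclusive = flat curve fit with activity between 30% and 70%, or invalid poor fit; inactive = AC50 beyond ten times the top tested dose.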

System: S. cerevisiae Mot1-301 ts growth rescue, BacTiter-Glo ATP luminescence
Test: restored Mot1-301 yeast growth at 38.5C – whole organism, S. cerevisiae, Mot1-301 ts mutant, luminescence, dose retest, SUMOylation pathway inhibitor project, confirmation (AID 463204);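 also: growth at restrictive 38.5 degrees C of Mot1-301 OY566 strain; actives raise luminescence by restoring growth of the ts mutant at high temperature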

With CCOC(=O)c1ccccc1NC(=O)C1CC(=O)N(C2CCCCC2)C1 (stereo not given) the AC50 was > 42 µM (inactive).
COc1cc(NC(=O)c2ccccc2F)c(OC)cc1NC(=O)CN1CCCCC1 was tested, and the AC50 was > 42 µM (inactive).
With Fc1cccc(Cl)c1CSc1nnc(CN2CCOCC2)n1-c1ccccc1 the AC50 was > 42 µM (inactive).
For O=C(CN1CCN(Cc2ccc(F)cc2)CC1)NCc1ccccc1, the AC50 was > 42 µM (inactive).
Cc1nnc(NC(=O)c2ccc(-c3cccc(C(F)(F)F)c3)o2)s1 was tested, and the AC50 was > 42 µM (inactive).
COc1cc(OC)cc(OC(=O)c2ccc3c(=O)n4c(nc3c2)CCC4)c1 was tested, and the AC50 was > 42 µM (inactive).
With Cc1cccc(C(=O)NCC(=O)N2CCN(c3ccc(Cl)cc3)CC2)c1 the AC50 was > 42 µM (inactive).
For CCC(c1nnnn1C1CCCC1)N1CCN(c2cccc(OC)c2)CC1 (stereo not given), the AC50 was > 21 µM (inactive).
With O=C1OCc2cc(NS(=O)(=O)c3cccs3)ccc21 the AC50 was > 42 µM (inactive).
For COc1cc(C(=O)NCCC2=CCCCC2)ccc1OC1CCN(C(C)=O)CC1, the AC50 was > 42 µM (inactive).
For c1ccc(OCCCc2nc(-c3cccnc3)no2)cc1, the AC50 was > 42 µM (inactive).
For O=c1[nH]cnc2sc3c(c12)CCC3, the AC50 was > 42 µM (inactive).
Cc1ccc(S(=O)(=O)N2CCOCC2)cc1NC(=O)COC(=O)CNC(=O)c1ccccc1 was tested, and the AC50 was > 42 µM (inactive).
In the case of CC(C)C(=O)NNc1ccc(C(F)(F)F)cn1, the AC50 is reported as > 42 µM (inactive).
Molecule Cc1ccc(-n2nnnc2C(Cl)(Cl)c2nnnn2-c2ccc(C)cc2)cc1 has an AC50 of 0.73 µM.
In the case of NNC(=O)c1[nH]c2ccccc2c1-c1ccccc1, the AC50 is reported as > 42 µM (inactive).
For O=C1CCCN1CCC1CCN(C2CC(=O)N(c3ccc(Cl)cc3)C2=O)CC1 (stereo not given), the AC50 was 10.1 µM.
In the case of O=C(NCc1ccco1)c1ccc(Br)c(S(=O)(=O)N2CCCCC2)c1, the AC50 is reported as > 42 µM (inactive).
For O=Cc1ccc(Oc2cccc(C(F)(F)F)c2)nc1, the AC50 was > 42 µM (inactive).
For CCc1nnc(NC(=O)CSc2nc3c(cc2C#N)CCCC3)s1, the AC50 was > 42 µM (inactive).
For Cc1cccc(N=Nc2ccc(N(C)C)cc2)c1, the AC50 was > 42 µM (inactive).
In the case of CSCC[C@H](NC(=O)CC(C)(C)C)c1nc2ccccc2[nH]1, the AC50 is reported as > 42 µM (inactive).
In the case of Brc1ccc(-c2cn3cccnc3n2)cc1, the AC50 is reported as > 42 µM (inactive).
In the case of COc1ccc(N=Cc2c(O)n(C)c(=O)[nH]c2=O)cc1, the AC50 is reported as > 42 µM (inactive).
With Cc1cc(C(=O)COc2cccc3cccnc23)c(C)n1C the AC50 was > 42 µM (inactive).
With CC(=O)N1CCC2(CC1)CC(=O)c1cc(OCC(=O)N3CCCC3)ccc1O2 the AC50 was > 42 µM (inactive).
CCOC(=O)c1cc2sc(C)cc2n1CC(=O)Nc1ccc2c(c1)OCCO2 was tested, and the AC50 was > 42 µM (inactive).
COc1ccc(-n2c(C)cc(C(=O)CN3C(=O)NC4(CCCc5sccc54)C3=O)c2C)cc1 (stereo not given) was tested, and the AC50 was > 42 µM (inactive).
With Cc1ccsc1C(=O)NCCc1ccc(S(N)(=O)=O)cc1 the AC50 was > 42 µM (inactive).
O=C(CSc1ncccc1C(=O)O)NC1CCCCC1 was tested, and the AC50 was > 42 µM (inactive).
For Cc1c(OC(C)C(=O)N2C[C@H]3C[C@@H](C2)c2cccc(=O)n2C3)ccc2c3c(c(=O)oc12)CCCC3 (stereo not given in full), the AC50 was > 42 µM (inactive).
In the case of Cc1ccc(C)c(C(C)NC(=O)c2ccncc2)c1 (stereo not given), the AC50 is reported as > 42 µM (inactive).
With CCCCCNC(=O)c1ccc2c(=O)n(CC3CCCO3)c(=O)[nH]c2c1 (stereo not given) the AC50 was > 42 µM (inactive).
In the case of CCOc1ccc(C(=O)Nc2ccc(CN3CCOCC3)cc2)cc1Br, the AC50 is reported as > 21 µM (inactive).
With C/C(=N/Nc1ccc(F)cc1)c1ccc(Cl)s1 the AC50 was > 42 µM (inactive).
Cc1cc(C(F)(F)F)c(C#N)c(=O)[nH]1 was tested, and the AC50 was > 42 µM (inactive).
In the case of CCOC(=O)N1CCN(C(=O)CNC(=O)c2nn(-c3ccc(OC)c(OC)c3)c(=O)c3ccccc23)CC1, the AC50 is reported as > 42 µM (inactive).
In the case of COc1cc(C)c(Cl)c(C)c1S(=O)(=O)NCc1ccc2c(c1)OCO2, the AC50 is reported as > 42 µM (inactive).
With CC(=O)N(C)c1ccc(N2CCOCC2)c2c1C(=O)c1ccccc1C2=O the AC50 was > 42 µM (inactive).
COC(=O)[C@@H]1[C@@H](C(=O)OC)C2(c3ccccc3-c3ccccc32)N(c2ccc(Cl)cc2)N1C#N gave an AC50 of 1.72 µM.
In the case of O=C(CSc1cccc2cccnc12)Nc1cc(C(=O)O)cc(C(=O)O)c1, the AC50 is reported as > 42 µM (inactive).
In the case of CCS(=O)(=O)N1CCC(C(=O)N2CCc3ccccc3C2)CC1, the AC50 is reported as > 42 µM (inactive).
In the case of CCCCn1c2c(c(=O)n(C)c1=O)C(c1ccc(OC)cc1)N1CCCCCC1=N2 (stereo not given), the AC50 is reported as > 42 µM (inactive).
With Nn1c(SCc2cc([N+](=O)[O-])cc3c2OCOC3)nnc1-c1ccccn1 the AC50 was > 42 µM (inactive).
COc1ccc(N(C(=O)c2ccncc2)S(=O)(=O)c2ccc(F)cc2)cc1 was tested, and the AC50 was > 42 µM (inactive).
For O=C(CSc1nc(=O)n2ccccc2n1)N1CCN(c2ccccc2)CC1, the AC50 was > 42 µM (inactive).
In the case of COc1ccc(C(=O)NC(=S)Nc2ccc(CN3CCCCC3)cc2)cc1Cl, the AC50 is reported as > 42 µM (inactive).
In the case of CCOC(=O)C1CCN(CC(O)COCc2ccccc2)CC1 (stereo not given), the AC50 is reported as > 42 µM (inactive).
For CCNC(=O)/C(C#N)=C/c1c(N2CCCCCC2)nc2ccccn2c1=O, the AC50 was > 42 µM (inactive).
Cc1ccc(-n2nnnc2SCC#N)cc1 was tested, and the AC50 was > 42 µM (inactive).
